Results published in ChEMBL document CHEMBL5303573, “Mapping human microbiome drug metabolism by gut bacteria and their genes” (Nature, 2019).

Assays:
[1] = The drug is tested on Eubacterium ventriosum strain: ATCC27560 for biotransformation. The drug concentrations were measured before and after a 12-h incubation by liquid-chromatography-coupled mass spectrometry (LC–MS); assay type: ADME; parameters: dose 2 uM, timepoint 0 vs 12 hours; settings: 2 µM
[2] = bacteroides fragilis, 12 h, 2 µM
Description: The drug is tested on Bacteroides fragilis strain: NCTC 9343 for biotransformation. The drug concentrations were measured before and after a 12-h incubation by liquid-chromatography-coupled mass spectrometry (LC–MS)

[3] = The drug is tested on Edwardsiella tarda strain: ATCC23685 for biotransformation. The drug concentrations were measured before and after a 12-h incubation by liquid-chromatography-coupled mass spectrometry (LC–MS); settings: 2 µM
[4] = bacteroides fragilis, 12 h, 2 µM; remark: listed apart in the source
Description: The drug is tested on Bacteroides fragilis strain: DS-208 for biotransformation. The drug concentrations were measured before and after a 12-h incubation by liquid-chromatography-coupled mass spectrometry (LC–MS)

[5] = The drug is tested on Dorea formicigenerans strain: ATCC27755 for biotransformation. The drug concentrations were measured before and after a 12-h incubation by liquid-chromatography-coupled mass spectrometry (LC–MS); settings: 2 µM
[6] = bifidobacterium adolescentis, 12 h, 2 µM
Description: The drug is tested on Bifidobacterium adolescentis strain: ATCC 15703 for biotransformation. The drug concentrations were measured before and after a 12-h incubation by liquid-chromatography-coupled mass spectrometry (LC–MS)

[7] = The drug is tested on Bacteroides caccae strain: ATCC43185 for biotransformation. The drug concentrations were measured before and after a 12-h incubation by liquid-chromatography-coupled mass spectrometry (LC–MS); settings: 2 µM
[8] = The drug is tested on Anaerococcus hydrogenalis strain: DSM7454 for biotransformation. The drug concentrations were measured before and after a 12-h incubation by liquid-chromatography-coupled mass spectrometry (LC–MS); settings: 2 µM
[9] = The drug is tested on Subdoligranulum variabile strain: DSM15176 for biotransformation. The drug concentrations were measured before and after a 12-h incubation by liquid-chromatography-coupled mass spectrometry (LC–MS); settings: 2 µM
[10] = anaerostipes sp., 12 h, 2 µM
Description: The drug is tested on Anaerostipes sp. strain: fecal isolate for biotransformation. The drug concentrations were measured before and after a 12-h incubation by liquid-chromatography-coupled mass spectrometry (LC–MS)

[11] = The drug is tested on Bacteroides cellulosilyticus strain: DSM14838 for biotransformation. The drug concentrations were measured before and after a 12-h incubation by liquid-chromatography-coupled mass spectrometry (LC–MS); settings: 2 µM
[12] = The drug is tested on Bifidobacterium longum subsp. Infantis strain: CCUG52486 for biotransformation. The drug concentrations were measured before and after a 12-h incubation by liquid-chromatography-coupled mass spectrometry (LC–MS); settings: 2 µM
[13] = parabacteroides distasonis, 12 h, 2 µM
Description: The drug is tested on Parabacteroides distasonis strain: ATCC8503 for biotransformation. The drug concentrations were measured before and after a 12-h incubation by liquid-chromatography-coupled mass spectrometry (LC–MS)

[14] = bacteroides fragilis, 12 h, 2 µM; remark: listed apart in the source
Description: The drug is tested on Bacteroides fragilis strain: 3397 (T10) for biotransformation. The drug concentrations were measured before and after a 12-h incubation by liquid-chromatography-coupled mass spectrometry (LC–MS)

[15] = The drug is tested on Collinsella aerofaciens strain: ATCC25986 for biotransformation. The drug concentrations were measured before and after a 12-h incubation by liquid-chromatography-coupled mass spectrometry (LC–MS); settings: 2 µM
[16] = The drug is tested on Ruminococcus gnavus strain: ATCC29149 for biotransformation. The drug concentrations were measured before and after a 12-h incubation by liquid-chromatography-coupled mass spectrometry (LC–MS); settings: mediterraneibacter gnavus, 2 µM
[17] = The drug is tested on Ruminococcus lactaris strain: ATCC29176 for biotransformation. The drug concentrations were measured before and after a 12-h incubation by liquid-chromatography-coupled mass spectrometry (LC–MS); settings: 2 µM
[18] = The drug is tested on Escherichia coli strain: BW25113 for biotransformation. The drug concentrations were measured before and after a 12-h incubation by liquid-chromatography-coupled mass spectrometry (LC–MS); settings: 2 µM
[19] = The drug is tested on Clostridium symbiosum strain: ATCC14940 for biotransformation. The drug concentrations were measured before and after a 12-h incubation by liquid-chromatography-coupled mass spectrometry (LC–MS); settings: 2 µM

SMILES | Bacterial Biotransformation [1] | Bacterial Biotransformation [2] | Bacterial Biotransformation [3] | Bacterial Biotransformation [4] | Bacterial Biotransformation [5] | Bacterial Biotransformation [6] | Bacterial Biotransformation [7] | Bacterial Biotransformation [8] | Bacterial Biotransformation [9] | Bacterial Biotransformation [10] | Bacterial Biotransformation [11] | Bacterial Biotransformation [12] | Bacterial Biotransformation [13] | Bacterial Biotransformation [14] | Bacterial Biotransformation [15] | Bacterial Biotransformation [16] | Bacterial Biotransformation [17] | Bacterial Biotransformation [18] | Bacterial Biotransformation [19]
O=C1C(CC[S+]([O-])c2ccccc2)C(=O)N(c2ccccc2)N1c1ccccc1 (configuration not stated) [SULFINPYRAZONE] | Compound NOT metabolized | Compound metabolized | Compound NOT metabolized | Compound metabolized | Compound NOT metabolized | Compound NOT metabolized | Compound NOT metabolized | Compound NOT metabolized | Compound NOT metabolized | Compound NOT metabolized | Compound NOT metabolized | Compound NOT metabolized | Compound NOT metabolized | Compound NOT metabolized | Compound NOT metabolized | Compound NOT metabolized | Compound NOT metabolized | Compound NOT metabolized | 
CS(=O)(=O)O.OC(CCN1CCCCC1)(c1ccccc1)c1ccccc1 [PRIDINOL METHANESULFONATE] | Compound NOT metabolized | Compound NOT metabolized | Compound NOT metabolized | Compound NOT metabolized | Compound NOT metabolized | Compound NOT metabolized | Compound NOT metabolized | Compound NOT metabolized | Compound NOT metabolized | Compound NOT metabolized | Compound NOT metabolized | Compound NOT metabolized |  | Compound NOT metabolized | Compound NOT metabolized | Compound NOT metabolized | Compound NOT metabolized | Compound NOT metabolized | Compound NOT metabolized
C[C@@H](CO)NC(=O)[C@@H]1C=C2c3cccc4[nH]cc(c34)C[C@H]2N(C)C1.O=C(O)/C=C\C(=O)O [ERGONOVINE MALEATE] | Compound NOT metabolized | Compound metabolized | Compound NOT metabolized | Compound metabolized | Compound metabolized |  |  | Compound metabolized | Compound NOT metabolized | Compound NOT metabolized | Compound metabolized | Compound metabolized |  | Compound metabolized | Compound metabolized |  | Compound metabolized | Compound NOT metabolized | Compound metabolized
CCCN(CCC)CCc1cccc2c1CC(=O)N2 [ROPINIROLE] | Compound NOT metabolized | Compound NOT metabolized | Compound NOT metabolized | Compound NOT metabolized | Compound NOT metabolized | Compound NOT metabolized |  | Compound NOT metabolized | Compound NOT metabolized | Compound NOT metabolized | Compound NOT metabolized | Compound NOT metabolized |  |  | Compound NOT metabolized | Compound NOT metabolized | Compound NOT metabolized | Compound NOT metabolized | Compound NOT metabolized
